Experimental data published in US7629375B2, “Cytoprotective compounds, pharmaceutical and cosmetic formulations, and methods” (Johnson & Johnson Consumer Companies, Inc., priority 2001, dated 2009).

What follows are molecules tested on neonatal cardiomyocytes (assay: Myocyte calcium-contractility assay). Details: anaerobic chamber 16 hours in DMEM 1 mM glucose, reoxygenation two hours.
Assay type: cell-based, rat
Protocol: A. Isolation and Culture of Primary Neonate Myocytes.
The following materials are employed: • 10× Heart Dissection Solution (HDS) contains the following components (g/l) in tissue grade water: NaCl, 68; HEPES, 47.6; NaH2PO4, 2; Glucose, 10; KCl, 4; MgSO4, 1, pH adjusted to 7.4. Prior to filter sterilization of diluted (1×HDS) solution, 10 mg phenol red is added to each 500 milliliters of medium. • Transferrin and Bovine Insulin (available from Life Technologies) are resuspended at a concentration of 4 mg/ml in tissue culture grade water. • DMEM-F12—DMEM/F12, powder, 1:1 containing glutamine and pyridoxine hydrochloride (available from Life Technologies). To one liter equivalent of the powder is added 2.43 g of sodium bicarbonate and 10 ml of 100× Penicillin/Streptomycin in 950 ml of tissue culture grade water with stirring. The pH is adjusted to 7.2 with 1M HCl and volume adjusted to 1 liter. The solution is filter sterilized, followed by the addition of 2.5 ml of 4 mg/ml Transferrin, 250 μl 4 mg/ml Insulin and 30.7 mg of bromodeoxyuridine. • DMEM-F12-5% FBS is also prepared for pre-coating the tissue culture plates and initial suspension of the cardiomyocyte pellet. • Collagenase solution-57.1 mg of collagenase is resuspended in 140 ml 1×HDS.
Tissue culture ware is pre-coated with DMEM-F12-5% FBS by incubating […] per well of a 96-well plate and 0.5 ml per 24-well plate at 37° C.
Two-day old rat pups are removed from their mothers and placed in a sterile container. Pups are dipped quickly into 70% alcohol, then decapitated and the body placed in an empty sterile tissue culture dish. An incision is made starting at the neck and progressing towards the belly, cutting through the sternum. The heart is removed and placed in a tissue culture dishes containing 1×HDS. The atria are trimmed, and the remaining ventricles are placed into a separate tissue culture dish containing 1×HDS, where they are sectioned into 3-4 pieces each. Ventricles are then transferred to a sterile 250 ml glass flask and the 1×HDS is removed. Twenty milliliters of pre-warmed collagenase solution is added to the ventricles, followed by incubation at 37° C. with shaking. After 20 minutes, the collagenase solution is removed and replaced with 20 ml fresh pre-warmed collagenase. Incubation is continued for an additional 20 minutes. At the end of the incubation, any tissue chunks are allowed to settle prior to removing the collagenase (containing the isolated cardiomyocytes) from the disrupted tissue pieces. The isolated myocytes are added to a 50 ml Falcon tube containing 2 ml Fetal Bovine Serum (FBS). The remaining tissue pieces are subjected to a second digestion by adding 20 ml fresh pre-warmed collagenase and incubating as above for 20 minutes. This second digest is then centrifuged at 1000 rpm for 5 minutes (tabletop centrifuge). The resulting supernatant is discarded, and the cell pellet is suspended with 4 ml FBS. The resulting cell suspension is placed in the incubator at 37° C. This step is repeated several additional times to harvest additional material.
Percoll gradients are prepared by adding 2.5 ml of 10×HDS to 22.5 ml of Percoll (Life Technologies) with mixing (Percoll Stock). Top Gradient solution (11 ml Percoll Stock and 14 ml 1×HDS) and Bottom Gradient solution (13 ml Percoll Stock and 7 ml 1×HDS) are prepared. Four milliliters of the Top Gradient solution is transferred into 6×15 ml sterile Falcon tubes. Three milliliters of the Bottom Gradient solution is placed in each tube by inserting a serological pipette to the bottom of the tube and slowly adding the liquid.
All the digests (6) are pooled in one 50 ml Falcon tube and centrifuged on a tabletop centrifuge at 1000 rpm for 10 minutes. The supernatant is discarded, and the cell pellet is resuspended in 12 ml of 1×HDS. Two milliliters of the cell suspension is added to the top of each gradient. […]
`COC(=O)c1ccc(C=Cc2cc(I)c(O)c(OC)c2)cc1` [4-[2-(4-hydroxy-3-iodo-5-methoxy-phenyl)-vinyl]-benzoic acid methyl ester] was tested, and the “calcium transients (Fluo-4) in amounts indicative of ability guard against ischemic damage and maintain contractile function” value (“calcium transients” for short) was “presence of calcium transients”. For `COc1cc(C=Cc2ccc(C#N)cc2)ccc1O` [4-[2-(4-hydroxy-3-methoxy-phenyl)-vinyl]-benzonitrile], the “calcium transients” value was “presence of calcium transients”. For `COC(=O)c1ccc(C=Cc2ccc(C)s2)cc1` [4-[2-(5-methyl-thiophen-2-yl)-vinyl]-benzoic acid methyl ester], the “calcium transients” value was “presence of calcium transients”. With `COCOc1cc(C=Cc2ccc(C(=O)OC)cc2)cc(CC=C(C)C)c1OCOC` [4-{2-[3,4-bis-methoxymethoxy-5-(3-methyl-but-2-enyl)-phenyl]-vinyl}-benzoic acid methyl ester] the “calcium transients” value was “presence of calcium transients”. In the case of `COCOc1cc(C=Cc2ccc(C#N)cc2)cc(OCOC)c1CC=C(C)C` [4-{2-[3,5-bis-methoxymethoxy-4-(3-methyl-but-2-enyl)-phenyl]-vinyl}-benzonitrile], the “calcium transients” value is reported as “presence of calcium transients”. In the case of `COC(=O)c1ccc(C=Cc2cc(CC=C(C)CCC=C(C)C)c(O)c(OC)c2)cc1` [4-{2-[3-(3,7-dimethyl-octa-2,6-dienyl)-4-hydroxy-5-methoxy-phenyl]-vinyl}-benzoic acid methyl ester], the “calcium transients” value is reported as “presence of calcium transients”. For `COc1cc(C=Cc2ccc(C#N)cc2)cc(CC=C(C)CCC=C(C)C)c1O` [4-{2-[3-(3,7-dimethyl-octa-2,6-dienyl)-4-hydroxy-5-methoxy-phenyl]-vinyl}-benzonitrile], the “calcium transients” value was “presence of calcium transients”. With `COCOc1c(CC=C(C)CCC=C(C)C)cc(C=Cc2ccc(C#N)cc2)cc1OC` [4-{2-[3-(3,7-dimethyl-octa-2,6-dienyl)-5-methoxy-4-methoxymethoxy-phenyl]-vinyl}-benzonitrile] the “calcium transients” value was “presence of calcium transients”. For `COCOc1c(CC=C(C)C)cc(C=Cc2ccc(C(=O)OC)cc2)cc1OC` [4-{2-[3-methoxy-4-methoxymethoxy-5-(3-methyl-but-2-enyl)-phenyl]-vinyl}-benzoic acid methyl ester], the “calcium transients” value was “presence of calcium transients”. With `COCOc1cc(C=Cc2ccc(C(=O)OC)cc2)cc(OCOC)c1CC=C(C)CCC=C(C)C` [4-{2-[4-(3,7-dimethyl-octa-2,6-dienyl)-3,5-bis-methoxymethoxy-phenyl]-vinyl}-benzoic acid methyl ester] the “calcium transients” value was “presence of calcium transients”. `COCOc1cc(C=Cc2ccc(C#N)cc2)cc(OCOC)c1CC=C(C)CCC=C(C)C` [4-{2-[4-(3,7-dimethyl-octa-2,6-dienyl)-3,5-bis-methoxymethoxy-phenyl]-vinyl}-benzonitrile] was tested, and the “calcium transients” value was “presence of calcium transients”. With `Oc1cc(-c2ccc(C=Cc3ccc(O)c(O)c3)cc2)n[nH]1` [4-{2-[4-(5-hydroxy-1H-pyrazol-3-yl)-phenyl]-vinyl}-benzene-1,2-diol] the “calcium transients” value was “presence of calcium transients”. In the case of `COCOc1ccc(C=C2SC(=O)NC2=O)cc1OCOC` [5-(3,4-bis-methoxymethoxy-benzylidene)-thiazolidine-2,4-dione], the “calcium transients” value is reported as “presence of calcium transients”. For `O=C1NC(=O)C(=Cc2ccc(O)c(O)c2)S1` [5-(3,4-dihydroxy-benzylidene)-thiazolidine-2,4-dione], the “calcium transients” value was “presence of calcium transients”. With `COCOc1cc(C=Cc2cc(OC)c(OCOC)c(OC)c2)cc(OCOC)c1CC=C(C)C` [5-[2-(3,5-dimethoxy-4-methoxymethoxy-phenyl)-vinyl]-2-(3-methyl-but-2-enyl)-1,3-(bis-methoxymethoxy)-benzene] the “calcium transients” value was “presence of calcium transients”. `COCOC(=O)c1cc(C=Cc2ccc(C(=O)OC)cc2)ccc1OCOC` [5-[2-(4-methoxycarbonyl-phenyl)-vinyl]-2-methoxymethoxy-benzoic acid methoxymethyl ester] was tested, and the “calcium transients” value was “presence of calcium transients”. `O=[N+]([O-])c1ccc(C=Cc2cc(O)cc(O)c2)cc1` [5-[2-(4-nitro-phenyl)-vinyl]-benzene-1,3-diol] was tested, and the “calcium transients” value was “presence of calcium transients”. With `Cc1c(C)c2c(c(COc3ccc(C=C4SC(=O)NC4=O)cc3)c1O)CCC(C)(CCCC(C)CCCC(C)CCCC(C)C)O2` (centres unmarked) [5-{4-[6-hydroxy-2,7,8-trimethyl-2-(4,8,12-trimethyl-tridecyl)-chroman-5-ylmethoxy]-benzylidene}-thiazolidine-2,4-dione] the “calcium transients” value was “presence of calcium transients”. With `COCOc1ccc(C=Cc2ccc(N(C)C)cc2)cc1OCOC` [{4-[2-(3,4-bis-methoxymethoxy-phenyl)-vinyl]-phenyl}-dimethyl-amine] the “calcium transients” value was “presence of calcium transients”. For `CNc1ccc(C=Cc2ccc(OCOC)c(OCOC)c2)cc1` [{4-[2-(3,4-bis-methoxymethoxy-phenyl)-vinyl]-phenyl}-methyl-amine], the “calcium transients” value was “presence of calcium transients”.
